One block for each compound: values may come before it.
Experiments:
[1] = target: MAP kinase-activated protein kinase 2 (Homo sapiens, UniProt P49137); assay: Selectivity interaction (Ambit KINOMEscan and KiNATiv profiling in Jurkat cells) EUB0000090b MAPKAPK2; type: cell-based; settings: at 1 µM
[2] = target: Mitogen-activated protein kinase 7 (Homo sapiens) (UniProt Q13164); assay: Selectivity interaction (KinomeScan (DiscoverX)) EUB0000618a MAPK7; settings: at 10 µM
[3] = target: T1, Histone-lysine N-methyltransferase EHMT1 (Homo sapiens) (UniProt Q9H9B1); settings: at 10 µM
T1 sequence (whole entry): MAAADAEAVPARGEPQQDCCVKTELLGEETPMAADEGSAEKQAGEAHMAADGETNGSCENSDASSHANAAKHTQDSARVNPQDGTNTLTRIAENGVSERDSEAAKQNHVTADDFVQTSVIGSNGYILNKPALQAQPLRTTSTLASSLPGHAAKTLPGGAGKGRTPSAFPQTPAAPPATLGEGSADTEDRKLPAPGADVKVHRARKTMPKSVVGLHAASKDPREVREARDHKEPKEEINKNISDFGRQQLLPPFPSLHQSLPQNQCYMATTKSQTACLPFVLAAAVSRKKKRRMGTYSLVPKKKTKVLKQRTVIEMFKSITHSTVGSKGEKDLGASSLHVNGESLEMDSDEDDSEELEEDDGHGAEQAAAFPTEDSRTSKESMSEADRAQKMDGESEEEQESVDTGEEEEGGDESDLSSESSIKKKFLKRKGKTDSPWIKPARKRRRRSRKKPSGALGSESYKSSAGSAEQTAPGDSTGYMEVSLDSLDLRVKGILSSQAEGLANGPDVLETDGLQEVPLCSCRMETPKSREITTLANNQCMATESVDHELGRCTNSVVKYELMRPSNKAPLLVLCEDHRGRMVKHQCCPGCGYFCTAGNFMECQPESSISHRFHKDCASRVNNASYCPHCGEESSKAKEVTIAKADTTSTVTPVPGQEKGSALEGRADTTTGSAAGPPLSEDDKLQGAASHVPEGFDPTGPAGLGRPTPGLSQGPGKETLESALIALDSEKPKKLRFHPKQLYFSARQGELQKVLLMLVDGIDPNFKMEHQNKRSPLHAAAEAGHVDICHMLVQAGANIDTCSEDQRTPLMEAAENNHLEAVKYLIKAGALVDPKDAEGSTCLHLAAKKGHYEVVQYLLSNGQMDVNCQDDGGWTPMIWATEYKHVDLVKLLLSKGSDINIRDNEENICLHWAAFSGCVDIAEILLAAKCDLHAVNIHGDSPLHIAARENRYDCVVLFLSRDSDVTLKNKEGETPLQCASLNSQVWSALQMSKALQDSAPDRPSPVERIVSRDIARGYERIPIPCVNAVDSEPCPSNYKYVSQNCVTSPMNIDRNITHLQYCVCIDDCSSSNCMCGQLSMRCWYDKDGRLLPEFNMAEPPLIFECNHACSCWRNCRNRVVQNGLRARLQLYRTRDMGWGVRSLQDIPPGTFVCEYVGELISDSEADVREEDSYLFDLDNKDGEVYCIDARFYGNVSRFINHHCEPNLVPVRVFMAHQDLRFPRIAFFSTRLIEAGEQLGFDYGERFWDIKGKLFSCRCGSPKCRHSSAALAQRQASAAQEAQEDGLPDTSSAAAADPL

[4] = target: Microtubule-associated serine/threonine-protein kinase 1 (Homo sapiens) (UniProt Q9Y2H9); settings: at 10 µM
Sequence of Microtubule-associated serine/threonine-protein kinase 1 (Homo sapiens) (Q9Y2H9 whole entry, looked up): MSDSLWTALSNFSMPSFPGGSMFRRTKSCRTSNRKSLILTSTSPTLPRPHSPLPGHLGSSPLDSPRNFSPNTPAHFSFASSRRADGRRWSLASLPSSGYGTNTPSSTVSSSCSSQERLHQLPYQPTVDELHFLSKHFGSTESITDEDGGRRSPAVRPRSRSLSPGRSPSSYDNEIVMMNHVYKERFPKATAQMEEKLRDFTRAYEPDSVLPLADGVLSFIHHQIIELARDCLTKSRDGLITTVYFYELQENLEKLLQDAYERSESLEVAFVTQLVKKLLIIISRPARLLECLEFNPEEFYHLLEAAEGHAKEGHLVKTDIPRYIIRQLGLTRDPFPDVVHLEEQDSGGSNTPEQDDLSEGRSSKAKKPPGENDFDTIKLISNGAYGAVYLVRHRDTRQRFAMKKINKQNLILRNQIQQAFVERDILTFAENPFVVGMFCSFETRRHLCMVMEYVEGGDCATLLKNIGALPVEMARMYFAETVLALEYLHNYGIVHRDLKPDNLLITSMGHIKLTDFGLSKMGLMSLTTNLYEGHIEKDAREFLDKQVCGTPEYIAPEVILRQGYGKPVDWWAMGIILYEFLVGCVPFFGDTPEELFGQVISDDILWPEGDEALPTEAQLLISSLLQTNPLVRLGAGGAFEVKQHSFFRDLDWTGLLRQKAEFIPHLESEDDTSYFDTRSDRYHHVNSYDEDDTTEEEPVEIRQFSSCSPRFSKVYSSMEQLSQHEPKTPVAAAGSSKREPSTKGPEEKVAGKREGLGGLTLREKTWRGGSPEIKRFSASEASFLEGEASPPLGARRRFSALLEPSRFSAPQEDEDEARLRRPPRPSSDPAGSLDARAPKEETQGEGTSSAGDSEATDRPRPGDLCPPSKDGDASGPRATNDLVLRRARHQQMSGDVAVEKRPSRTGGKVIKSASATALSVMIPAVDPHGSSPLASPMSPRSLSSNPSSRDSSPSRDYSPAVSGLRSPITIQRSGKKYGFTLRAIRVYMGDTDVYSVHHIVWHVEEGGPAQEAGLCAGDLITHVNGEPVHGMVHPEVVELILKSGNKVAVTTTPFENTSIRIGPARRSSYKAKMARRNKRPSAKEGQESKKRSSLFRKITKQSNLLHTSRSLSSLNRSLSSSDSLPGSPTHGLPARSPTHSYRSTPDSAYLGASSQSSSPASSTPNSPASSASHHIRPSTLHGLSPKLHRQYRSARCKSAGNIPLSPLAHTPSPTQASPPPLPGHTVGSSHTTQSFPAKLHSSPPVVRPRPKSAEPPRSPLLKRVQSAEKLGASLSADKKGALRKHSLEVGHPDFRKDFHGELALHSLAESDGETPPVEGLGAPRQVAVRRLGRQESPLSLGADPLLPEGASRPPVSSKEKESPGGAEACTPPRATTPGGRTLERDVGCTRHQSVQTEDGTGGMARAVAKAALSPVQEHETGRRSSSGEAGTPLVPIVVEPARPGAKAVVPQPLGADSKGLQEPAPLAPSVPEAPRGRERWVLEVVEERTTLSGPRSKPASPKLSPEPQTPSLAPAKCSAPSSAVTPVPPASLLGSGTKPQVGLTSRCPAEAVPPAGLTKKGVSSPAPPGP

[5] = target: CDK7/Cyclin H/MNAT1 (Homo sapiens) (UniProt P51946+P50613+P51948); assay: Selectivity interaction (Kinase panel (Invitrogen)) EUB0000639a CDK7; type: protein-complex assay; settings: at 200 nM
[6] = target: T2, Serine/threonine-protein kinase TAO2 (Homo sapiens) (UniProt Q9UL54); assay: Selectivity interaction (KinomeScan (DiscoverX)) EUB0000229b TAOK2; settings: at 10 µM
T2 sequence (whole entry): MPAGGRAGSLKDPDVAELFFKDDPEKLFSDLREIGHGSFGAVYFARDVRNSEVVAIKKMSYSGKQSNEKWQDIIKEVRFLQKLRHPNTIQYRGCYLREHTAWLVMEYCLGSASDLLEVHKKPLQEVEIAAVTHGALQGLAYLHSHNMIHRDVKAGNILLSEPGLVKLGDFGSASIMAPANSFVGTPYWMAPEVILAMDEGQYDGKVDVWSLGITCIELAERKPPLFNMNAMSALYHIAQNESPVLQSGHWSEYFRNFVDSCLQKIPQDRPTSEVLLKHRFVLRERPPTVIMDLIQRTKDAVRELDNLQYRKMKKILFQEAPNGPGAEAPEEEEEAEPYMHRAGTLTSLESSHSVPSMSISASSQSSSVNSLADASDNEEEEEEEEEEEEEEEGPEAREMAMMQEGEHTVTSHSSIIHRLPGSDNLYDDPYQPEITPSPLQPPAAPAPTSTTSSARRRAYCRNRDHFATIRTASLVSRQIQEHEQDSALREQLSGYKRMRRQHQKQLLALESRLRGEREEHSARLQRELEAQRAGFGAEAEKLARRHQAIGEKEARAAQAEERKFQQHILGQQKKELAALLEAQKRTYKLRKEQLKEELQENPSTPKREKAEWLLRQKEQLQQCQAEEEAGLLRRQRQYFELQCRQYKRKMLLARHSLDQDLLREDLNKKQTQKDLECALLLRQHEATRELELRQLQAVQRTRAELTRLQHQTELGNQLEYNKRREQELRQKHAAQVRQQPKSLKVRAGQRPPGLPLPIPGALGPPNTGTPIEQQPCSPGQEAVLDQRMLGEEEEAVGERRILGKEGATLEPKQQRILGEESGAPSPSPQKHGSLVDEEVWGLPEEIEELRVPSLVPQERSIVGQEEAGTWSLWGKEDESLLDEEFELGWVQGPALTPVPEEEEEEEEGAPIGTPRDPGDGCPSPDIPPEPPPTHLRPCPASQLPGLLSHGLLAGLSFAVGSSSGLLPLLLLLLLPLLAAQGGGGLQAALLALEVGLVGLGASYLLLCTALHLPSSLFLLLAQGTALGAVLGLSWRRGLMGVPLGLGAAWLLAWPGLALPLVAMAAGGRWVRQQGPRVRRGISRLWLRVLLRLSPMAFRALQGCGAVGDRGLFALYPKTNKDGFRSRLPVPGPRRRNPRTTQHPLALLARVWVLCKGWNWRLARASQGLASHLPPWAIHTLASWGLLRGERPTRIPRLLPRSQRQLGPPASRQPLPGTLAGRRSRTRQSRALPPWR

Sequence of Mitogen-activated protein kinase 7 (Homo sapiens) (Q13164 2-816 limits assumed): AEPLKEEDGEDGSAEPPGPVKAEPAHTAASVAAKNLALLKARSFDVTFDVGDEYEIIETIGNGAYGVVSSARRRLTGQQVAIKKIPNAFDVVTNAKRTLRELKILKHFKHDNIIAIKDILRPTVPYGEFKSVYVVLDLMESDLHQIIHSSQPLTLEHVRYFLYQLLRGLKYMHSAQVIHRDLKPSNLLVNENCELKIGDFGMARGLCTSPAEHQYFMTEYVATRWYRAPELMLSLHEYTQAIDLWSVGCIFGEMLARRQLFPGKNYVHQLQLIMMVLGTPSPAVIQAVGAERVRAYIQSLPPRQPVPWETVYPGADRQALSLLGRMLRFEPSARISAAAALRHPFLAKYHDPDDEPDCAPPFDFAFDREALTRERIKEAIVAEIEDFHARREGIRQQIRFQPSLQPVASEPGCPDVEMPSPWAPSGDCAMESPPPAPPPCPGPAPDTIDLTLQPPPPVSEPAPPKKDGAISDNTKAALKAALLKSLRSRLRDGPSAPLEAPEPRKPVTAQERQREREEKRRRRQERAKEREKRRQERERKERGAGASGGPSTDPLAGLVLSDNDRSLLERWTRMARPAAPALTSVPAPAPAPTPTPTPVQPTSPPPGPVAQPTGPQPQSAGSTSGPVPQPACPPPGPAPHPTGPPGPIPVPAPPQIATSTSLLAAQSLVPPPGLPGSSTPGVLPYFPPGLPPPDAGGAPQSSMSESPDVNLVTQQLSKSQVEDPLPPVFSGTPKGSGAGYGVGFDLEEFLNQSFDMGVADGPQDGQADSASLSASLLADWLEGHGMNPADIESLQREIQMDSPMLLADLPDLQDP
Sequence of MAP kinase-activated protein kinase 2 (P49137 whole entry, looked up): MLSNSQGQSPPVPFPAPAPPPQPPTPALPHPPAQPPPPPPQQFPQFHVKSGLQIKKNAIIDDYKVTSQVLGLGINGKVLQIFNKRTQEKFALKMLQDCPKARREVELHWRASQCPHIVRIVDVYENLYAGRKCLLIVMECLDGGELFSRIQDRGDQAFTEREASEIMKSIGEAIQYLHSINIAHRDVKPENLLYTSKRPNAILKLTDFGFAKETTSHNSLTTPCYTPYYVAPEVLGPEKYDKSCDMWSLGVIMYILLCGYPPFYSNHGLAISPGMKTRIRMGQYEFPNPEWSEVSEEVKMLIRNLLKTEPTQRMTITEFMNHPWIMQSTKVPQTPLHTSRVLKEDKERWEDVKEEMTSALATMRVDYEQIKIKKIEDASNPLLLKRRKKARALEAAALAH

Compound: CN(C)C/C=C/C(=O)Nc1ccc(C(=O)N2CCCC(Nc3ncc(Cl)c(-c4c[nH]c5ccccc45)n3)C2)cc1 (stereo unspecified)
% of control [1]: 97%

Compound: O[C@H]1CC[C@H](Nc2ncc3nc(Nc4c(F)cc(F)cc4F)n([C@H]4CCOC4)c3n2)CC1
% of control [2]: 90%

% activity [3]: > 90%
Compound: CNCCN1CCC(c2cc(CN(C)C(=O)c3cccc(Oc4ccccc4)c3)ccn2)CC1

Compound: Cc1cc([C@@H](C)Nc2ccccc2C(=O)O)c2nc(N3CCOCC3)cc(=O)n2c1 [AZD-6482]
% of control [4]: 100%

% of inhibition [5]: 2.84%
Compound: CC[C@@H]1[C@H](F)C(=O)N[C@@H]1COc1nccc2cc(C(N)=O)c(OC)cc12 [ZIMLOVISERTIB]

Compound: COc1cc(N(C)c2ccnc3ccc(C(F)(F)F)cc23)cc(OC)c1OC
% binding [6]: 80%
